Laboratory results as given in patent EP4786454A1, “HETEROARYL DERIVATIVE AND USE THEREOF” (priority 2023, dated 2025).
Where two headings read alike, the source gives them in different places.

What was measured:
[1] = Pharmacokinetic evaluation after single intravenous and gavage administration; settings: mouse, in vivo, CD-1 mice, IV:1 PO:5 mg/kg
Method: Assay method: Mix a test compound with a mixture of 5% DMSO, 60% polyethylene glycol (PEG400) and 35% water, vortex and sonicate to prepare a clear solution of 0.2 mg/mL. Filter the solution through a microporous filter membrane for later use. Select the male CD-1 mice weighing 25 to 35 g, and administer a candidate compound solution to them via intravenous injection at a dosage of 1 mg/kg. After fasting, administer the candidate compound solution to them orally at a dosage of 5 mg/kg. After the administration to the animals, collect 25 µL of blood at 0.083, 0.25, 0.5, 1, 2, 4, 8, 12, and 24 hours, and place the blood in commercially available anticoagulant tubes pre-filled with EDTA-K2. Centrifuge the tubes for 10 minutes to separate the plasma, and store them at -60 °C. Determine the content of the target compound in the plasma samples by LC/MS/MS, and calculate the pharmacokinetic parameters using Phoenix WinNonlin software (Pharsight, USA).
Definition of each parameter: IV: intravenous injection; PO: oral administration; C0: instantaneous required concentration after intravenous injection; Cmax: peak plasma concentration after administration; Tmax: time required to reach the peak drug concentration after administration; T1/2: time required for plasma concentration to decrease by half; Vdss: apparent volume of distribution, which refers to the ratio constant between the amount of drug in the body and the plasma concentration when the drug reaches dynamic equilibrium in the body; Cl: clearance, which refers to the apparent volume of distribution of a drug cleared from the body per unit time; Tlast: time of the last test point; AUC0-last: area under the plasma concentration-time curve, which refers to the area enclosed by the plasma concentration curve on the time axis; F: a measure of the speed and extent to which a drug is absorbed into the blood circulation, which is an important indicator for evaluating the degree of drug absorption.
The purpose of this assay was to evaluate the pharmacokinetic behaviors after a single intravenous bolus and gavage administration of a compound, to investigate the bioavailability after the gavage administration, and to provide animal experimental data for clinical research.
CD-1 mice (male, 7 to 9 weeks old)
The pharmacokinetic characteristics of the compounds after intravenous and oral administration were assayed in rodents using a standard protocol. In the assay, a candidate compound was prepared into a clear solution and administered to mice via single intravenous and oral administration. The solvent for both intravenous and oral administration was a mixed solvent prepared with 5% DMSO, 60% PEG400, and 35% water. Four female CD-1 mice were used in this project. Two mice were administered intravenously, and plasma samples were collected at 0.083, 0.25, 0.5, 1, 2, 4, 8 and 24 h after the administration. The other two mice were administered orally via gavage, and plasma samples were collected at 0.25, 0.5, 1, 2, 4, 8 and 24 h after the administration. The plasma samples were […] at 4 °C and 3,200 × g for 10 min, and the supernatants were separated to give plasma samples. 20 times the volume of methanol solution containing internal standard was added to precipitate the proteins. After centrifugation at 12,000 × g for 15 min at 4 °C, 50 µL of the supernatant was taken and transferred to a 96-well plate, and centrifuged a second time, and the resulting supernatant was injected for analysis. The plasma concentration was quantitatively analyzed by LC-MS/MS method, and the pharmacokinetic parameters such as peak concentration (Cmax), clearance (CL), half-life (T1/2), […] (Vdss), area under the plasma concentration-time curve (AUC0-last), and bioavailability (F) were calculated.

hERG potassium channels = biological target: T1, hERG potassium channels (Homo sapiens, UniProt Q12809); assay: Automated patch-clamp (Qpatch) assay on CHO-hERG cells; type: cell-based
T1 construct: expressed in transfected cells; host or cells: CHO-hERG
T1 sequence (Q12809 whole entry): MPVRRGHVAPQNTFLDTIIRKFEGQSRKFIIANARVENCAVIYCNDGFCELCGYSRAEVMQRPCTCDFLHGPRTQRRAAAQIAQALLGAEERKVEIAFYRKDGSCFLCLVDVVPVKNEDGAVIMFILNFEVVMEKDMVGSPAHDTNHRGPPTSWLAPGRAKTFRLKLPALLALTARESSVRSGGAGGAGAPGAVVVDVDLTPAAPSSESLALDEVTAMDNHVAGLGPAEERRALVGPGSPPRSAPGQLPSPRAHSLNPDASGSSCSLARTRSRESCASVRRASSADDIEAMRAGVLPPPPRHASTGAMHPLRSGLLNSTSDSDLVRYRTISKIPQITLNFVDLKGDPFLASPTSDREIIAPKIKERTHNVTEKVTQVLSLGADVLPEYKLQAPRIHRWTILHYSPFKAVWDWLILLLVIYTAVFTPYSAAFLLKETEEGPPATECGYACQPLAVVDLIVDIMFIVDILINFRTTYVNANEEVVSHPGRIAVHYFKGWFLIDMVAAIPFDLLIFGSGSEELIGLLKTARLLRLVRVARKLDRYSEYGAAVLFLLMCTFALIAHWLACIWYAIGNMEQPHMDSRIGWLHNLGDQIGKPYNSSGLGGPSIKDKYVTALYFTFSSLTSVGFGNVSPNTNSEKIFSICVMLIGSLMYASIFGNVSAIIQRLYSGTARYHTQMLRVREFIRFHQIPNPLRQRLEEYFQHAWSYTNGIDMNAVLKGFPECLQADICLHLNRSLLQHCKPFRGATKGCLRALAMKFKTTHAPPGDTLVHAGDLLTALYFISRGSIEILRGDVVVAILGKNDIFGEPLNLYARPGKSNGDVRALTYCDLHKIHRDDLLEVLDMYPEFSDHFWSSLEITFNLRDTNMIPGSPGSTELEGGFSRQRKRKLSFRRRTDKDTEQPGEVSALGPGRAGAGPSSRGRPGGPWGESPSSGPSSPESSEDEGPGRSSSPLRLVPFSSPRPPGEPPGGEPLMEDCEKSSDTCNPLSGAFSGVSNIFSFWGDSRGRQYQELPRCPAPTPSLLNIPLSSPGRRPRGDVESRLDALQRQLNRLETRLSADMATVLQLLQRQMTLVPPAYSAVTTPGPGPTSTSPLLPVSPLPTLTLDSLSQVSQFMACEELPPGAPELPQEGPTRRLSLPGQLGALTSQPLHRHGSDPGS
Method: CHO-hERG cells were cultured in a 175 cm^2 culture flask. When cells grew to a density of 60 to 80%, the culture medium was removed. Cells were washed once with 7 mL of PBS (Phosphate Buffered Saline), and then 3 mL of cell dissociation reagent was added for digestion. After the digestion was completed, 7 mL of culture medium was added for neutralization, and then the mixture was centrifuged. The supernatant was aspirated, and then 5 mL of culture medium was added to resuspend the cells and ensure that the cell density was 2~5×10^6/mL.
The compound stock solution was diluted with DMSO. 10 µL of compound stock solution was added to 20 µL of DMSO solution, followed by 3-fold serial dilution to obtain 6 DMSO concentrations. 4 µL of the compound solution at each of the six DMSO concentrations was added to 396 µL of extracellular solution to achieve a 100-fold dilution to obtain six intermediate concentrations. Then, 80 µL of the compound solution at each of the six intermediate concentrations was added to 320 µL of extracellular solution to achieve a 5-fold dilution to the desired final test concentrations. […]
The electrophysiological process was recorded. […] This voltage stimulation was applied every 15 seconds, and recorded for 2 minutes. The extracellular solution was then given, and recorded for 5 minutes. […]
Assay data were analyzed by GraphPad Prism 5.0 software. […]

[2] = Pharmacokinetic evaluation after single intravenous and gavage administration; settings: mouse, in vivo, CD-1 mice, IV:0.5 PO:2 mg/kg
[3] = read-out: Area under the plasma concentration-time curve AUC0-last PO
[4] = read-out: Half-life T1/2 (IV) (converted)
[5] = read-out: Peak concentration Cmax
[6] = read-out: Tissue distribution Vdss

Row | SMILES | AUC(0-t) [1, 3] | bioavailability ([1]; read-out: Bioavailability F) | clearance ([1]; read-out: Clearance CL) | half-life [1, 4] | Cmax [1, 5] | Vd [1, 6] | IC50 (hERG potassium channels) | IC50 (hERG potassium channels; CHO-hERG cells, highest test concentration 40.00 µM, read-out: IC50) | AUC(0-t) [2, 3] | bioavailability ([2]; read-out: Bioavailability F) | clearance ([2]; read-out: Clearance CL) | half-life [2, 4] | Cmax [2, 5] | Vd [2, 6]
1 | CC(C)(C)CC(=O)Nc1nc2c(F)cc(C#N)cn2c1-c1ccc(OC(F)(F)F)cc1 [Compound 1] | 1.41 µM·h | 51.1% | 67.8 mL/min/kg | 52.8 min | 355 nM | 4.89 L/kg | > 40 µM | – | – | – | – | – | – | –
2 | CC(C)(C)CC(=O)Nc1nc2c(F)cc(C#N)cn2c1C1=CCCC1 [Compound 3] | – | – | – | – | – | – | – | > 40 µM | 2.35 µM·h | 57.3% | 25.6 mL/min/kg | 30 min | 1150 nM | 0.94 L/kg
